Consider 34 compounds from US10774053B2, “HIV protease inhibitors” (Gilead Sciences, Inc., priority 2017, dated 2020).

The assay concerns HIV-1 (IIIB) in MT-4 cells. Nature of the assay: microbe, parasite or virus in culture. The format is cell-based. The following applies: Human immunodeficiency virus 1, IIIB. The method, then:
Compounds were serially diluted (1:3) in DMSO on 384-well polypropylene plates and further diluted 200-fold into complete RPMI media (10% FBS, 1% P/S) using the Biotek Micro Flow and Agilent ECHO acoustic dispenser. Each plate contained up to 8 test compounds, with negative (No Drug Control) and 5 uM AZT positive controls. MT-4 cells were pre-infected with 10 uL of either RPMI (mock-infected) or a fresh 1:250 dilution of an HIV-1 (IIIB) concentrated virus stock. Infected and uninfected MT-4 cells were further diluted in complete RPMI media and added to each plate using a Micro Flow dispenser. After 5 days incubation in a humidified and temperature controlled incubator (37° C.), Cell Titer Glo (Promega) was added to the assay plates to quantify the amount of luciferase.

Setting [1] is: MT4, MT-4 cells, HIV-1, read-out: MT4 EC50.

Where two headings read alike, the source gives them in different places.

As a reminder, the EC50 is the concentration at which the effect is half-maximal. In the case of `CC(C)(C)C[C@]1(c2ccc(-c3cnn(C(F)F)c3)cc2)NC(=N)N([C@H](COC(=O)N[C@@H]2CC2(F)F)c2ccc(Cl)c(-n3ncnc3C(F)F)c2)C1=O` (single isomer, unassigned) [Compound 334], the EC50 under setting [1] is 8.98 nM. Regarding `C[C@@H](CC#N)C[C@]1(c2ccc(-c3cnn(C(F)F)c3)cc2)NC(=N)N([C@H](COC(=O)NC2(C(F)(F)F)CC2)c2ccc(Cl)c(-n3ncnc3C(F)F)c2)C1=O` (single isomer, unassigned) [Compound 346], under setting [1], the EC50 came out at 31.9 nM. Same read-out and setting: the result for `C[C@H](CC#N)C[C@]1(c2ccc(-c3cnn(C(F)F)c3)cc2)NC(=N)N([C@H](COC(=O)NC2(C(F)(F)F)CC2)c2ccc(Cl)c(-n3ncnc3C(F)F)c2)C1=O` (single isomer, unassigned) [Compound 347] reads 32 nM; that for `COc1ccc([C@@]2(CC(C)(C)C)NC(=N)N([C@H](COC(=O)N(C)C)c3ccc(Cl)c(-c4ncccc4C)c3)C2=O)c(F)c1` [Compound 1], 64.6 nM. For `CN(C)C(=O)OC[C@H](c1ccc(Cl)c(-c2ncc(-c3ccccc3)s2)c1)N1C(=N)N[C@@](c2cc(F)cc(F)c2)(C2CC2)C1=O` [Compound 2], under setting [1], the EC50 is 3000 nM. On the same count and under the same terms, the result for `CN(C)C(=O)OC[C@H](c1ccc(Cl)c(-c2ncc(N3CCOCC3)s2)c1)N1C(=N)N[C@@](c2cc(F)cc(F)c2)(C2CC2)C1=O` [Compound 3] reads 5710 nM. In the case of `CN(C)C(=O)OC[C@H](c1ccc(Cl)c(-c2ncc(-c3ccccc3)o2)c1)N1C(=N)N[C@@](c2cc(F)cc(F)c2)(C2CC2)C1=O` [Compound 4], under setting [1], the EC50 amounted to 3620 nM. Still for that read-out and setting: the result for `CN(C)C(=O)OC[C@H](c1ccc(Cl)c(-c2nccs2)c1)N1C(=N)N[C@@](c2cc(F)cc(F)c2)(C2CC2)C1=O` [Compound 5] reads 5710 nM; that for `CN(C)C(=O)OC[C@H](c1ccc(Cl)c(-c2nc(-c3ccccc3)cs2)c1)N1C(=N)N[C@@](c2cc(F)cc(F)c2)(C2CC2)C1=O` [Compound 6], 5710 nM; that for `Cc1ncoc1-c1cccc([C@@H](COC(=O)NC(C)C)N2C(=N)N[C@](CC(C)C)(c3ccccc3)C2=O)c1` [Compound 7], 57100 nM. For `COc1ccc([C@@]2(CC(C)(C)C)NC(=N)N([C@H](COC(=O)N(C)C)c3ccc(Cl)c(-c4ccccn4)c3)C2=O)c(F)c1` [Compound 8], under setting [1], the EC50 was determined as 277 nM. The same measure, in the same setting: the result for `COc1ccc([C@@]2(CC(C)(C)C)NC(=N)N([C@H](COC(=O)N(C)C)c3ccc(Cl)c(-c4nccn4C)c3)C2=O)c(F)c1` [Compound 9] reads 1690 nM.

`[H]/N=C1\N[C@](CC(C)(C)C)(c2ccc(OC)cc2F)C(=O)N1[C@H](COC(=O)N(C)C)c1ccc(Cl)c(-c2ncccc2F)c1` [Compound 10]: for the setting “MT4, read-out: MT4 EC50 (nM)”, the EC50 amounted to 91.9 nM.

Take `[H]/N=C1\N[C@](CC(C)(C)C)(c2ccc(-c3cnn(C(F)F)c3)cc2F)C(=O)N1[C@H](COC(=O)NC1CC1)c1ccc(Cl)c(-c2ncn[nH]2)c1` [Compound 11]: the EC50 under setting [1] is 35.5 nM. Consider `[H]/N=C1\N[C@](CC(C)(C)C)(c2ccc(-c3cnn(C(F)F)c3)cc2F)C(=O)N1[C@H](COC(=O)NC1CC1)c1ccc(Cl)c(-c2ncccc2C)c1` [Compound 12], for which the EC50 under setting [1] was 22.2 nM. Consider `[H]/N=C1\N[C@](CC(C)(C)C)(c2ccc(-c3cnn(C(F)F)c3)cc2F)C(=O)N1[C@H](COC(=O)NC1CC1)c1ccc(Cl)c(-c2ncccc2Cl)c1` [Compound 13], for which the EC50 (MT4, read-out: MT4 EC50 (nM)) stood at 310 nM.

`[H]/N=C1\N[C@](CC(C)(C)C)(c2ccc(-c3cnn(C(F)F)c3)cc2F)C(=O)N1[C@H](COC(=O)NC1CC1)c1ccc(Cl)c(-c2ncccn2)c1` [Compound 14]: the concentration for a half-maximal effect (EC50) (MT4, read-out: MT4 EC50 (nM)) is 68.6 nM. On to `[H]/N=C1\N[C@](CC(C)(C)C)(c2ccc(-c3cnn(C(F)F)c3)cc2)C(=O)N1[C@H](COC(=O)NC1CC1)c1ccc(Cl)c(-c2nccc(OC)n2)c1` [Compound 15, (S)-2-(4-chloro-3-(4-methoxypyrimidin-2-yl)phenyl)-2-((R)-4-(4-(1-(difluoromethyl)-1H-pyrazol-4-yl)phenyl)-2-imino-4-neopentyl-5-oxoimidazolidin-1-yl)ethyl cyclopropylcarbamate], for which, under setting [1], the EC50 was 230 nM. On the same count and under the same terms, under `[H]/N=C1\N[C@](CC(C)(C)C)(c2ccc(-c3cnn(C(F)F)c3)cc2)C(=O)N1[C@H](COC(=O)NC1CC1)c1ccc(Cl)c(-c2ncc[nH]2)c1` [Compound 16] stands 11.4 nM. `Cn1ncnc1-c1cc([C@@H](COC(=O)NC2CC2)N2C(=N)N[C@](CC(C)(C)C)(c3ccc(-c4cnn(C(F)F)c4)cc3)C2=O)ccc1Cl` [Compound 18]: under setting [1], the EC50 stood at 9.56 nM. As to `CC(C)(C)C[C@]1(c2ccc(-c3cnn(C(F)F)c3)cc2)NC(=N)N([C@H](COC(=O)NC2CC2)c2ccc(Cl)c(-c3ncn[nH]3)c2)C1=O` [Compound 19], the EC50 under setting [1] came to 49.9 nM. `CC(C)(C)C[C@]1(c2ccc(-c3cnccn3)cc2F)NC(=N)N([C@H](COC(=O)NC2CC2)c2ccc(Cl)c(-c3ncn[nH]3)c2)C1=O` [Compound 21]: the EC50 under setting [1] was 63.8 nM. Still for that read-out and setting: under `CC(C)(C)C[C@]1(c2ccc(-c3cnn(C(F)F)c3)cc2)NC(=N)N([C@H](COC(=O)NC2CC2)c2ccc(Cl)c(-c3nc(Cl)c(Cl)[nH]3)c2)C1=O` [Compound 23] stands 70.4 nM; under `CC(C)(C)C[C@]1(c2ccc(-c3cnn(C(F)F)c3)cc2)NC(=N)N([C@H](COC(=O)NC2CC2)c2ccc(Cl)c(-c3cc[nH]n3)c2)C1=O` [Compound 24], 68.2 nM. Regarding `CC(C)(C)C[C@]1(c2ccc(-c3cnn(C(F)F)c3)cc2)NC(=N)N([C@H](COC(=O)NC2(C(F)(F)F)CC2)c2ccc(Cl)c(-c3ncn[nH]3)c2)C1=O` [Compound 25], the EC50 (MT4, read-out: MT4 EC50 (nM)) was determined as 52.7 nM.

As to `CC(C)(C)C[C@]1(c2ccc(-c3cnccn3)cc2)NC(=N)N([C@H](COC(=O)NC2(C(F)(F)F)CC2)c2ccc(Cl)c(-c3ncn[nH]3)c2)C1=O` [Compound 27], the EC50 under setting [1] amounted to 80.4 nM. Same read-out and setting: the result for `CC(C)(C)C[C@]1(c2ccc(-c3cnccn3)cc2)NC(=N)N([C@H](COC(=O)NC2CC2)c2ccc(Cl)c(-c3ncn[nH]3)c2)C1=O` [Compound 28] reads 91.7 nM.

For `[H]/N=C1\N[C@](CC(C)(C)C)(c2ccc(-c3cnn(C(F)F)c3)cc2)C(=O)N1[C@H](COC(N)=O)c1ccc(Cl)c(-c2c[nH]cn2)c1` [Compound 29], the EC50 under setting [1] is 228 nM. Same read-out and setting: under `[H]/N=C1\N[C@](CC(C)(C)C)(c2ccc(-c3cnn(C(F)F)c3)cc2)C(=O)N1[C@H](COC(=O)NC1CC1)c1ccc(Cl)c(-c2c[nH]cn2)c1` [Compound 30] stands 120 nM; under `CC(C)(C)C[C@]1(c2ccc(-c3cnn(C(F)F)c3)cc2)NC(=N)N([C@H](COC(=O)NC2(C)CC2)c2ccc(Cl)c(-c3ncn[nH]3)c2)C1=O` [Compound 31], 51 nM; under `CC(C)(C)C[C@]1(c2ccc(-c3cnccn3)cc2)NC(=N)N([C@H](COC(=O)NC2(C)CC2)c2ccc(Cl)c(-c3ncn[nH]3)c2)C1=O` [Compound 33], 37.2 nM.

Take `CC(C)(C)C[C@]1(c2ccc(-c3cnn(C(F)F)c3)cc2)NC(=N)N([C@H](COC(=O)NC2CC2)c2ccc(Cl)c(-c3ncnn3C(F)F)c2)C1=O` [Compound 35]: the EC50 under setting [1] came to 98.1 nM.

For the compound `CC(C)(C)C[C@]1(c2ccc(-c3cnn(C(F)F)c3)cc2)NC(=N)N([C@H](COC(=O)NC2CC2)c2ccc(Cl)c(-c3cn(C(F)F)cn3)c2)C1=O` [Compound 36], the EC50 under setting [1] stood at 89.3 nM. Same read-out and setting: the result for `CC(C)(C)C[C@]1(c2ccc(-c3cnn(C(F)F)c3)cc2)NC(=N)N([C@H](COC(=O)NC2CC2)c2ccc(Cl)c(-c3cncn3C(F)F)c2)C1=O` [Compound 37] reads 219 nM.
